Measurements from PubChem BioAssay AID338 (DTP/NCI, 2004).
Values joined by “and” are separate entries in the source; they are usually repeats but may differ in a detail not shown here. Equal values may be shown once. Inconclusive results and toxic doses are left out.

Tested on: BDF1 mice, P388 leukemia (terephthalanilide-resistant), survival T/C
Experiment: NCI In Vivo Anticancer Drug Screen. Data for tumor model P388 Leukemia resistant to A Terephthalanilide; NSC 38280 (intraperitoneal) in B6D2F1 (BDF1) mice
Settings: endpoint: median survival time, higher = longer survival
Description: The antitumor activity of compounds was measured in mice bearing transplantable tumors. Survival or tumor size were measured and the results are expressed as the measurement made in the treated group (T) divided by the measurement made in the vehicle treated control group (C). The tumor model used in this assay is P388 Leukemia resistant to A Terephthalanilide; NSC 38280 (intraperitoneal) in B6D2F1 (BDF1) mice

[1] = dose: 5.0 mg/kg/injection, schedule: Q01DX010 (ip), vehicle: saline
[2] = dose: 40.0 mg/kg/injection, schedule: Q01DX010 (ip), vehicle: saline
[3] = dose: 62.5 mg/kg/injection, schedule: Q01DX010 (ip), vehicle: saline
[4] = dose: 125.0 mg/kg/injection, schedule: Q01DX010 (ip), vehicle: saline
[5] = dose: 250.0 mg/kg/injection, schedule: Q01DX010 (ip), vehicle: saline
[6] = dose: 500.0 mg/kg/injection, schedule: Q01DX010 (ip), vehicle: saline
[7] = dose: 10.0 mg/kg/injection, schedule: Q01DX010 (ip), vehicle: saline
[8] = dose: 0.5 mg/kg/injection, schedule: Q01DX010 (ip), vehicle: saline
[9] = dose: 1.0 mg/kg/injection, schedule: Q01DX010 (ip), vehicle: saline
[10] = dose: 2.0 mg/kg/injection, schedule: Q01DX010 (ip), vehicle: saline

C[C@]12C=CC(=O)C=C1CC[C@@H]1[C@@H]2C(=O)C[C@@]2(C)[C@H]1CC[C@]2(O)C(=O)CO
T/C (dose: 0.12 mg/kg/injection, schedule: Q01DX Z (sc), vehicle: steriod suspending solution): 100 % of control
T/C (dose: 12.5 mg/kg/injection, schedule: Q01DX Z (sc), vehicle: steriod suspending solution): 104 % of control
T/C (dose: 25.0 mg/kg/injection, schedule: Q01DX010 (sc), vehicle: steriod suspending solution): 105 % of control
T/C (dose: 25.0 mg/kg/injection, schedule: Q01DX Z (sc), vehicle: steriod suspending solution): 100 % of control and 109 % of control
T/C (dose: 50.0 mg/kg/injection, schedule: Q01DX Z (sc), vehicle: steriod suspending solution): 100 % of control
T/C (dose: 100.0 mg/kg/injection, schedule: Q01DX010 (sc), vehicle: steriod suspending solution): 88 % of control
T/C (dose: 200.0 mg/kg/injection, schedule: Q01DX010 (sc), vehicle: steriod suspending solution): 88 % of control

Cc1cc(N(CCCl)CCCl)ccc1N=Nc1ccccc1C(=O)O
T/C [1]: 116 % of control
T/C [2]: 100 % of control

NC(Cc1ccc(N(CCCl)CCCl)cc1)C(=O)O (stereo not drawn)
T/C (dose: 2.0 mg/kg/injection, schedule: Q01DX010 (ip), vehicle: other): 163 % of control
T/C (dose: 4.0 mg/kg/injection, schedule: Q01DX010 (ip), vehicle: other): 100 % of control

O=NN(CCCl)C(=O)NCCCl
T/C (dose: 6.25 mg/kg/injection, schedule: Q01DX010 (ip), vehicle: saline): 225 % of control and 245 % of control
T/C (dose: 12.5 mg/kg/injection, schedule: Q01DX010 (ip), vehicle: saline): 215 % of control and 300 % of control
T/C (dose: 25.0 mg/kg/injection, schedule: Q01DX010 (ip), vehicle: saline): 110 % of control

Nc1nc(SCc2ccccc2)c2[nH]cnc2n1
T/C (dose: 8.0 mg/kg/injection, schedule: Q01DX010 (ip), vehicle: saline): 105 % of control
T/C (dose: 16.0 mg/kg/injection, schedule: Q01DX010 (ip), vehicle: saline): 100 % of control and 105 % of control
T/C (dose: 32.0 mg/kg/injection, schedule: Q01DX010 (ip), vehicle: saline): 121 % of control
T/C (dose: 64.0 mg/kg/injection, schedule: Q01DX010 (ip), vehicle: saline): 115 % of control and 122 % of control

CC(=O)N(C)C
T/C [3]: 90 % of control and 111 % of control
T/C [4]: 100 % of control
T/C [5]: 88 % of control
T/C [6]: 95 % of control and 100 % of control

Nc1nc(=S)c2[nH]cnc2[nH]1
T/C (dose: 1.25 mg/kg/injection, schedule: Q01DX010 (ip), vehicle: saline): 162 % of control
T/C (dose: 2.5 mg/kg/injection, schedule: Q01DX010 (ip), vehicle: saline): 150 % of control and 175 % of control
T/C [7]: 112 % of control

Nc1nc2n[nH]nc2c(=O)[nH]1
T/C (dose: 25.0 mg/kg/injection, schedule: Q01DX010 (ip), vehicle: alkali diluted with saline): 162 % of control
T/C (dose: 50.0 mg/kg/injection, schedule: Q01DX010 (ip), vehicle: alkali diluted with saline): 162 % of control
T/C (dose: 100.0 mg/kg/injection, schedule: Q01DX010 (ip), vehicle: alkali diluted with saline): 175 % of control
T/C (dose: 200.0 mg/kg/injection, schedule: Q01DX010 (ip), vehicle: alkali diluted with saline): 175 % of control

CN=C(NC)c1ccc(NC(=O)c2ccc(C(=O)Nc3ccc(C(=NC)NC)cc3)c(Cl)c2)cc1
T/C (dose: 18.0 mg/kg/injection, schedule: Q01DX010 (ip), vehicle: saline): 105 % of control
T/C (dose: 27.0 mg/kg/injection, schedule: Q01DX010 (ip), vehicle: saline): 100 % of control

NC(=O)N(CCCl)N=O
T/C [8]: 172 % of control
T/C [9]: 172 % of control
T/C [10]: 109 % of control

CCCCNc1ncnc2c1cnn2C
T/C (dose: 31.3 mg/kg/injection, schedule: Q01DX010 (ip), vehicle: saline): 100 % of control
T/C [3]: 95 % of control and 111 % of control
T/C [4]: 88 % of control

CN(C)c1ccc(/C=C/c2ccnc3ccccc23)cc1
T/C [1]: 100 % of control and 111 % of control
T/C [7]: 100 % of control and 111 % of control
T/C (dose: 20.0 mg/kg/injection, schedule: Q01DX010 (ip), vehicle: saline): 90 % of control and 94 % of control
T/C [2]: 116 % of control

CS(=O)(=O)OCCN(CCOS(C)(=O)=O)c1ccc(N=O)cc1
T/C [8]: 100 % of control
T/C [9]: 109 % of control
T/C [10]: 109 % of control and 113 % of control

O=CCC(O)C(O)C(O)CO (stereo not drawn)
T/C [3]: 110 % of control and 111 % of control
T/C [4]: 100 % of control and 110 % of control
T/C [5]: 110 % of control and 111 % of control
T/C [6]: 115 % of control and 122 % of control
